In PubChem BioAssay AID2060898 (Molecular Pharmacology Branch, DTP, NCI, 2025):

Test system: 616215-338-R-J1-PDC complex spheroid viability
Test: Anticancer human tumor 616215-338-R-J1-PDC patient-derived colon adenocarcinoma cell line growth inhibition [RAS]
Conditions: for IC50: curve of first compound; for viability, T/C: stronger effect = lower value; active = viability on the fitted dose curve at most 10% of control; inactive = the rest
From the text: RAS pathway inhibitors in Combinations in Complex Spheroids
A high-throughput screen of multi-cell type tumor spheroids was designed to identify active combinations of RAS pathway inhibitors and targeted small molecules. Complex spheroids include a stromal component modeled by human endothelial cells (HUVEC) and fibroblasts modeled by human mesenchymal stem cells (MSCs). The concentration ranges selected for each drug and investigational agent were based upon clinically achievable concentrations if the clinical Cmax of the agent was known.
Compounds. The drugs and investigational agents: abemaciclib (NSC768073), cobimetinib (NSC768068), divarasib (GDC6063, NSC841802), docetaxel (NSC628503), GDC-1971 (RLY-1971, NSC841576), gemcitabine (NSC613327), inavolisib (NSC800729), ipatasertib (NSC767898), KB-0742 (NSC834161), MRTX-1133 (NSC836407), osimertinib (NSC779217), RMC-4630 (NSC839698), RMC-6236 (NSC851965), RMC-6291 (NSC852671), Ro-3306 (NSC812927), sapanisertib (NSC764658), SN-38 (NSC673596), staurosporine (NSC755774), SY5609 (NSC837396), and tovorafenib (DAY101, NSC766906), were obtained from the National Cancer Institute (NCI) Developmental Therapeutics Program Chemical Repository. The FDA-approved anticancer drug set is available from the NCI Developmental Therapeutics Program. […] The stock solutions were prepared in dimethyl sulfoxide (DMSO, Sigma-Aldrich, St. Louis, MO, cat. D2650) at 800-fold the tested concentration and stored at -70 degrees C prior to their use. All drugs and investigational agents were tested over a range starting from a high concentration at or near the clinical Cmax and decreasing in half-log increments. If the clinical Cmax for an agent had not been determined, the highest concentration tested was 10 microM.
Cell Culture. All cells were maintained in an incubator at 37 degrees C and 5% CO2 with 95% humidity. The PDC lines were cultured according to standard operating procedures established by the NCI PDMR. All PDCs were thawed and cultured in Matrigel-coated flasks prepared with a working solution of 1X Ham's F-12 nutrient mix, without supplementation (Invitrogen, Waltham, MA, cat. 11765054), 100 U/mL penicillin-streptomycin (Invitrogen, cat. 15140122), and 2.5% Matrigel (Corning Inc., Corning, NY, cat. 354248) for the first three passages. The 362531-283-R-J2-PDC and 782815-120-R-J1-PDC lines were cultured in 6C/Colon 1B media, which includes advanced DMEM/F-12 (Thermo Fisher Scientific, cat. 12634028), 10 mM HEPES (Thermo Fisher Scientific, cat. 15630080), 1X GlutaMAX supplement (Thermo Fisher Scientific, cat. 35050061), 0.1 mg/mL primocin (InvivoGen, San Diego, CA, cat. ant-pm-2), 10% defined fetal bovine serum, heat inactivated (HyClone Laboratories Inc., Logan, UT, cat. SH30070.03HI), 50% L-WRN conditioned media (ATCC, cat. CRL-3276), 1.25 mM N-Acetyl-L-cysteine (Sigma-Aldrich, cat. A9165), 10 mM nicotinamide (Sigma-Aldrich, cat. N0636), 1X B-27 supplement (Thermo Fisher Scientific, cat. 17504044), 1X N-2 supplement (Thermo Fisher Scientific, cat. 17502048), 50 ng/mL human EGF (Thermo Fisher Scientific, cat. PHG0311), and 10 microM Y-27632 dihydrochloride (Tocris Bioscience, cat. 1254). The K12877-001-R-J1-PDC line was cultured in 6I media, which includes all 6C/Colon 1B media plus 10 ng/mL human FGF-10 (PeproTech, cat. 100-26), 1 ng/mL human FGF-2 (PeproTech, cat. 100-18B), 1 µM prostaglandin E2 (Tocris Bioscience, cat. 2296), […] hydrocortisone (Sigma-Aldrich, cat. H4001), and […] bovine insulin (Sigma-Aldrich, cat. I6634). The K86415-001-R-J1-PDC line was cultured in 6D media, which includes all 6C/Colon 1B media components minus the L-WRN conditioned media. The 485176-168-R4-J1-PDC was cultured in PANC media, which includes all 6C/Colon 1B media plus 100 ng/mL human FGF-10 (PeproTech, cat. 100-26), 500 nM SB-431542 (Selleckchem, cat. S1067), and 10 nM gastrin (Tocris Bioscience, cat. 3006). […]
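Also: spheroids exposed to agents for seven days before viability readout.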

CC(C)NCC(C(=O)N1CCN(c2ncnc3c2C(C)CC3O)CC1)c1ccc(Cl)cc1 (configuration not stated) + C#Cc1c(F)ccc2cc(O)cc(-c3ncc4c(N5CC6CCC(C5)N6)nc(OCC56CCCN5CC(F)C6)nc4c3F)c12
7.91 µM: IC50 (second compound 0.316 µM)
4.6 µM: IC50 (second compound 3.16 µM)
8.8 µM: IC50 (second compound 0.0316 µM)
7.71 µM: IC50 (second compound 1 µM)
2.13 µM: IC50 (second compound 10 µM)
inactive: viability, T/C (second compound 0.0316 µM, first compound 0.0316 µM) 107% | viability, T/C (second compound 0.0316 µM, first compound 0.1 µM) 103% | viability, T/C (second compound 0.0316 µM, first compound 0.316 µM) 108% | viability, T/C (second compound 0.0316 µM, first compound 1 µM) 111% | viability, T/C (second compound 0.0316 µM, first compound 3.16 µM) 99.5% | viability, T/C (second compound 0.0316 µM, first compound 10 µM) 43.8% | viability, T/C (second compound 0.1 µM, first compound 0.0316 µM) 104% | viability, T/C (second compound 0.1 µM, first compound 0.1 µM) 109% | viability, T/C (second compound 0.1 µM, first compound 0.316 µM) 105% | viability, T/C (second compound 0.1 µM, first compound 1 µM) 111% | viability, T/C (second compound 0.1 µM, first compound 3.16 µM) 91.8% | viability, T/C (second compound 0.1 µM, first compound 10 µM) 43% | viability, T/C (second compound 0.316 µM, first compound 0.0316 µM) 113% | viability, T/C (second compound 0.316 µM, first compound 0.1 µM) 110% | viability, T/C (second compound 0.316 µM, first compound 0.316 µM) 110% | viability, T/C (second compound 0.316 µM, first compound 1 µM) 108% | viability, T/C (second compound 0.316 µM, first compound 3.16 µM) 81.5% | viability, T/C (second compound 0.316 µM, first compound 10 µM) 42% | viability, T/C (second compound 1 µM, first compound 0.0316 µM) 114% | viability, T/C (second compound 1 µM, first compound 0.1 µM) 121% | viability, T/C (second compound 1 µM, first compound 0.316 µM) 115% | viability, T/C (second compound 1 µM, first compound 1 µM) 103% | viability, T/C (second compound 1 µM, first compound 3.16 µM) 75.7% | viability, T/C (second compound 1 µM, first compound 10 µM) 42.5% | viability, T/C (second compound 3.16 µM, first compound 0.0316 µM) 107% | viability, T/C (second compound 3.16 µM, first compound 0.1 µM) 101% | viability, T/C (second compound 3.16 µM, first compound 0.316 µM) 94.5% | viability, T/C (second compound 3.16 µM, first compound 1 µM) 97.2% | viability, T/C (second compound 3.16 µM, first compound 3.16 µM) 60.3% | viability, T/C (second compound 3.16 µM, first compound 10 µM) 28.4% | viability, T/C (second compound 10 µM, first compound 0.0316 µM) 81.2% | viability, T/C (second compound 10 µM, first compound 0.1 µM) 82.2% | viability, T/C (second compound 10 µM, first compound 0.316 µM) 89.2% | viability, T/C (second compound 10 µM, first compound 1 µM) 74.1% | viability, T/C (second compound 10 µM, first compound 3.16 µM) 37.2% | viability, T/C (second compound 10 µM, first compound 10 µM) 18.5%
8.47 µM: IC50 (second compound 0.1 µM)
